Where “and” joins values, the source holds several entries; their conditions need not be identical. Equal entries are not always repeated.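 Grown in 96-well plates, cells were treated for 48 hours with each compound at five concentrations. Insufficient inhibition: endpoint recorded as highest concentration tested. GI50 = concentration required for 50% inhibition of growth. At the TGI there is no net growth.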

Common to all, as to assay: inhibition of tumour cell growth, NCI panel, 48 h
Test [1] relates to 786-0 renal.
In test [2] the test system is HOP-92 NSCLC.
The test system of test [3] is UO-31 renal.
The subject of test [4] is U251 CNS.
The test system of test [5] is SR leukemia.
Test [6] has as its system HCT-15 colon.
Test [7] concerns NCI-H226 lung.
The subject of test [8] is SNB-75 CNS.
Test [9] deals with K-562 leukemia.
The test system of test [10] is UACC-62 melanoma.

For the molecule `Cn1cc(C2=C(c3cccc(OCC(O)CO)c3)C(=O)NC2=O)c2ccccc21` (stereo unspecified), the GI50 in test [1], in [2], in test [3], in test [4], in test [5] and in test [6] was greater than 25 µM throughout. For the same molecule, the GI50 in test [7] was greater than 25 µM; in [8] it was 5.86 µM; in test [9], greater than 25 µM; in test [10], greater than 25 µM. Also, the TGI in test [1], in [2], in test [3], in [4], in [5] and in test [6] was greater than 25 µM each time. For the same molecule, the TGI in test [7], in [8], in test [9] and in [10] was greater than 25 µM in each case.
For `CCOC(=O)NC(=O)c1cn(CCN2CCN(c3ncnc4nc[nH]c34)CC2)c(=O)[nH]c1=O`, the TGI in [1], in [2], in test [3], in test [4], in test [5] and in test [6] was greater than 100 µM in each case. The TGI in [7], in test [8], in [9] and in test [10] was greater than 100 µM throughout.
Regarding `CCc1ccc(NC(=O)COC(=O)c2cc([N+](=O)[O-])ccc2Sc2nnnn2C)cc1`, the GI50 in test [1] is 21.1 µM; in test [2], 22.8 µM; in [3], 24.9 µM; in [4] it was 15.4 µM; in test [5], 4.05 µM; in test [6], 13 µM. Besides, the GI50 is 17 µM in test [7], 13.1 µM in test [8], 9.4 µM in test [9] and 15.2 µM in test [10]. For the same molecule, the TGI in test [1] was 72.9 µM; in test [2], 82.7 µM; in [3], greater than 100 µM; in test [4], 34.1 µM; in [5] it was greater than 100 µM; in test [6], 37.3 µM. Also, the TGI in [7] was found to be 36.1 µM; in test [8] it was 35 µM; in test [9], 50.6 µM; in [10] it was 48 µM.
With `CC[C@H](CO)Nc1nc(NCc2ccccc2)n2ncc(C(C)C)c2n1`, the GI50 in test [1] was 1.98 µM; in [2], 1.67 µM; in test [3] it was 1.59 µM; in [4], 1.4 µM; in test [5], 0.249 µM; in test [6], 0.872 µM. In addition, the GI50 in [7] was 1.84 µM; in [8], 1.31 µM; in [9], 2.44 µM; in [10], 1.37 µM. Besides, the TGI was 10.7 µM in [1]; 7.1 µM in test [2]; greater than 100 µM in [3]; 10.5 µM in [4]; 1.59 µM in test [5]; 10.5 µM in test [6]. The TGI came out at 10.1 µM in test [7], 3.33 µM in test [8], 7.38 µM in test [9] and 5.5 µM in [10].
For `CCOc1ccccc1N=Nc1c(C)[nH]n(-c2nc(-c3ccccc3)cs2)c1=O`, the GI50 in [1] is 35.4 µM; in test [2], 21.9 µM; in [3], greater than 65.1 µM; in test [4], 36.2 µM; in test [5] it was greater than 100 µM; in test [6] it was greater than 100 µM. Also, the GI50 in test [7] is 32.5 µM; in test [8] it was 14.3 µM; in test [9], greater than 100 µM; in test [10] it was 35.6 µM. The TGI was greater than 100 µM in [1]; greater than 96.8 µM in test [2]; greater than 100 µM in test [3]; greater than 100 µM in [4]; greater than 100 µM in [5]; greater than 100 µM in [6]. Also, the TGI was greater than 100 µM in test [7], 48.3 µM in test [8], greater than 100 µM in [9] and greater than 100 µM in [10].
Regarding `CC1=C2C(=CC(C)(C)C2O)C(=O)C(C)(O)C12CC2` (stereo unspecified), the TGI in [1] is 0.0388 µM; in test [2], 0.0526 µM; in [3], 0.0291 µM; in test [4], 0.102 µM; in test [5], 0.128 µM; in test [6], 0.151 µM. In addition, the TGI in [7] is 0.152 µM; in [8], 0.0377 µM; in test [9], 0.154 µM; in test [10], 0.0324 µM. In addition, the GI50 in test [4] was 0.00775 µM.
With `O=C(NC[C@H](O)CO)c1ccncc1Nc1ccc(I)cc1F`, the GI50 was > 10 µM and 6.21 µM in test [1]; 0.0509 µM and 0.0379 µM in test [2]; 0.2 µM and 0.988 µM in test [3]; 1.84 µM and 4.92 µM in test [4]; > 10 µM and 52.4 µM in test [5]; 3.53 µM and 5.62 µM in test [6]. Further, the GI50 in test [7] is > 6.36 µM and 1.4 µM; in [8], > 10 µM and 33.2 µM; in test [9] it was 1.32 µM and 4.26 µM; in [10], 0.00248 µM and < 0.01 µM. Further, the TGI in test [1] is greater than 100 µM; in [2] it was 1.2 µM and 3.61 µM; in test [3], > 10 µM and 20.3 µM; in test [4], greater than 100 µM; in test [5], greater than 100 µM; in [6] it was greater than 100 µM. The TGI in test [7] was greater than 100 µM; in test [8], greater than 100 µM; in test [9], greater than 100 µM; in test [10] it was 0.0292 µM.
Turning to `C1CN(SSN2CCOCC2)CCO1`, the GI50 is 21 µM in test [1]; 15.7 µM in [2]; 49.5 µM in test [3]; 33.6 µM in [4]; 48.9 µM in [5]; 35.6 µM in [6]. Also, the GI50 in [7] was greater than 100 µM; in test [8], 44.1 µM; in test [9], 4.58 µM; in test [10] it was 58.7 µM. Besides, the TGI is 37.1 µM in [1]; 89.2 µM in [2]; greater than 100 µM in [3]; greater than 100 µM in test [4]; greater than 100 µM in [5]; greater than 100 µM in test [6]. Moreover, the TGI in test [7], in [8], in test [9] and in test [10] was greater than 100 µM in each case.
Consider `COc1c2c(nc3ccccc13)-c1cc3c(c(=O)n1C2)COC(=O)C3(O)CC(=O)N1CCOCC1` (stereo unspecified), for which the TGI in test [1] is 12.8 µM; in test [2], 63.4 µM; in test [3], 68.9 µM; in test [4], 6.92 µM; in test [5] it was 17.5 µM; in [6], greater than 100 µM. Besides, the TGI is 22.9 µM in [7], 11.6 µM in [8], greater than 100 µM in test [9] and 8.35 µM in test [10].
On to `O=C(/C=C/c1ccc([N+](=O)[O-])cc1)c1ccc2c3c(cccc13)CC2`, for which the GI50 in test [1] was 10.2 µM; in test [2], 2.43 µM; in [3] it was 10.4 µM; in test [4] it was 2.65 µM; in test [5], 2.02 µM; in [6], 5.07 µM. Also, the GI50 in [7] is greater than 37.2 µM; in test [8], 4.95 µM; in test [9], 4.37 µM; in test [10] it was greater than 48.4 µM. Moreover, the TGI in [1] was greater than 88.9 µM; in test [2], 15.4 µM; in test [3] it was greater than 62.6 µM; in test [4], greater than 29.6 µM; in [5], 24.9 µM; in test [6] it was greater than 100 µM. Further, the TGI in test [7] was greater than 100 µM; in [8], 23.8 µM; in test [9] it was greater than 100 µM; in test [10], greater than 100 µM.
For `Nc1[nH]nc2nc(-c3cccs3)cc(C(F)(F)F)c12`, the GI50 was greater than 25 µM in test [1]; greater than 14.1 µM in test [2]; greater than 25 µM in test [3]; greater than 23.7 µM in test [4]; greater than 13.7 µM in [5]; greater than 25 µM in test [6]. Moreover, the GI50 is greater than 23.2 µM in test [7], greater than 25 µM in [8], greater than 25 µM in test [9] and greater than 25 µM in test [10]. Further, the TGI in test [1], in test [2], in test [3], in test [4], in test [5] and in [6] was greater than 25 µM in each case. The TGI in [7], in test [8], in [9] and in test [10] was greater than 25 µM in each case.
As for `Nc1nc(Nc2ccc(C3CCC(N4CCOCC4)CC3)cc2)nn1-c1ccccn1` (stereo unspecified), the GI50 is 2.22 µM in [1]; 1.59 µM in test [2]; 2.48 µM in test [3]; 5.05 µM in test [4]; 0.366 µM in test [5]; 3.6 µM in test [6]. The GI50 in [7] was 2.4 µM; in test [8] it was 1.9 µM; in test [9] it was 2.83 µM; in test [10] it was 7.27 µM. Further, the TGI in test [1] is 11.4 µM; in test [2], greater than 27.5 µM; in [3], greater than 33.7 µM; in [4], greater than 100 µM; in [5] it was 3.29 µM; in [6] it was greater than 100 µM. Besides, the TGI in test [7] is greater than 58.4 µM; in test [8] it was 11.9 µM; in test [9] it was greater than 100 µM; in test [10], greater than 88.3 µM.
On to `CS[C@]12C(=O)C[C@@]3(C)[C@@H](CC[C@]3(O)C(=O)CO)[C@@H]1CCC1=CC(=O)CC[C@@]12C`, for which the TGI in [1], in [2], in test [3], in test [4], in test [5] and in test [6] was greater than 100 µM throughout. The TGI in test [7], in [8], in test [9] and in [10] was greater than 100 µM in each case.
Regarding `COc1ccc(C2SC(C)C(=O)N2NC(=O)C(O)c2ccccc2)cc1OC` (stereo unspecified), the GI50 in [1], in test [2], in test [3], in [4], in test [5] and in test [6] was greater than 100 µM in each case. The GI50 in test [7], in test [8], in [9] and in [10] was greater than 100 µM throughout. Further, the TGI in test [1], in test [2], in test [3], in [4], in test [5] and in test [6] was greater than 100 µM each time. Besides, the TGI in test [7], in [8], in test [9] and in test [10] was greater than 100 µM in each case.
Regarding `C[Si](C)(C)c1ccc(-c2sc(-c3ccc([Si](C)(C)C)s3)c3c2C[Si]2(C3)Cc3c(-c4ccc([Si](C)(C)C)s4)sc(-c4ccc([Si](C)(C)C)s4)c3C2)s1`, the TGI in test [1], in test [2], in test [3], in test [4], in test [5] and in test [6] was greater than 100 µM in each case. Also, the TGI in test [7], in [8], in [9] and in [10] was greater than 100 µM each time.
Take `C/C=C(\C)C(=O)O[C@H]1C=CC(=O)O[C@@H]1CC[C@H](O)[C@H](C)O`: the GI50 in test [1] was 46.5 µM; in test [2], 35 µM; in test [3], 20.5 µM; in test [4], 55.3 µM; in [5], 4.7 µM; in test [6] it was 28.6 µM. Further, the GI50 in test [7] was 47.4 µM; in [8] it was 33.3 µM; in test [9], 33 µM; in [10], 38.5 µM. Moreover, the TGI is greater than 100 µM in [1]; greater than 87.5 µM in [2]; greater than 67.4 µM in [3]; greater than 100 µM in test [4]; 42.8 µM in [5]; greater than 80.3 µM in test [6]. In addition, the TGI in test [7] is greater than 100 µM; in test [8] it was 78.9 µM; in test [9], greater than 100 µM; in test [10], greater than 73.9 µM.
As for `Cc1ccc(C)c(NC(=O)CC/C(=N\NC(=O)c2c(O)ccc3ccccc23)C(C)C(=O)c2ccc(O)cc2)c1` (stereo unspecified), the TGI is greater than 100 µM in [1]; greater than 100 µM in test [2]; greater than 100 µM in test [3]; greater than 100 µM in test [4]; 90.3 µM in test [5]; greater than 100 µM in test [6]. Also, the TGI was 98.8 µM in test [7], greater than 100 µM in test [8], greater than 100 µM in [9] and 34.3 µM in test [10].

The values above are taken from PubChem BioAssay (NCI).
